# Laboratory results taken from publication PMC5077990, “P53 activation inhibits all types of hematopoietic progenitors and all stages of megakaryopoiesis” (Oncotarget, 2016).
# Like-named read-outs stand apart in the source and are kept apart here.
# How the values were obtained:
# [1] = tested on: CFU-MK (Colony Forming Unit-Megakaryocyte) progenitors from CD34+ cells; assay: Colony assay in fibrin clot, CFU-MK; format: cell-based, human; details: Homo sapiens
# Procedure: CD34^+cells were obtained from leukapheresis samples after mobilization of donors after informed consent in agreement with our Institute Ethic Committee (Assistance Publique des Hôpitaux de Paris) and in accordance with the Declaration of Helsinki. CD34^+cells were isolated by a positive selection using an immunomagnetic cell sorting system (AutoMacs; Miltenyi Biotec, Bergisch Gladbach, Germany). 500 to 1000 normal CD34^+cells were plated either in 1% methylcellulose assay (StemCells technologies, Vancouver, Canada) to quantify erythroid (BFU-E) and granulo-monocytic (CFU-GM) progenitors or in serum-free fibrin clot assay for quantification of MK progenitors (CFU-MK) in the absence or presence of various concentration of SAR405838 or MI-219. Cultures in methylcellulose were stimulated by addition of human recombinant growth factors: G-CSF (20 ng/mL), IL-3 (10 ng/mL) SCF (25 ng/mL, Biovitrum AB, Stockholm, Sweden), IL-6 (10 ng/mL), FLT3 (10 ng/mL) and human EPO (1 U/mL). Cultures in fibrin clot were stimulated with 10 ng/mL TPO (Kirin Brewery, Tokyo, Japan) and 25 ng/mL SCF. BFU-E and CFU-GM colonies were enumerated at day 14 of culture. […]
# [2] = tested on: p53 target genes (MDM2, PUMA, P21) in CD34+ cells; assay: qRT-PCR of p53 target genes in CD34+ cells; format: cell-based, human; details: CD34+ cells cultured one day with TPO and SCF; doses 0.75 M, 1.5 μM, 2.5 μM and 5 μM
# Procedure: To investigate the impact of p53 stabilization on hematopoietic progenitors, CD34^+ cells were cultured for one day in serum-free medium with TPO and SCF in the presence of the MDM2 antagonist SAR405838 before quantifying the p53 target genes by qRT-PCR.
# Figure 1 Effects of SAR405838 on CD34+ progenitors A. Dose-effect of SAR405838 on p53 target genes by qRT-PCR. CD34^+ cells were treated or not with SAR405838 at various doses ([…], 1.5 μM, 2.5 μM and 5 μM). The expression of P53 and its targets (MDM2, PUMA, P21) were quantified by qRT-PCR related to PPIA. Results are the mean ± SEM of 2 independent experiments in duplicate. B, C, D. Cells were seeded in methylcellulose (B, C) or in fibrin clot (D) in the presence of MI-219 or SAR405838 to assay the number of BFU-E, CFU-GM and CFU-MK progenitors. Results are presented as percentage compared to control. Results represent the mean of 3 experiments for BFU-E and CFU-GM and 3 experiments for CFU-MK made in triplicate. * represents statistical significance using student t test (* P<0.05; **P<0.01; ***P<0.001).
# (§1) PCRs were carried out in the ABI Prism GeneAmp 5700 (Perkin-Elmer) using the Power SYBR-Green PCR Master Mix (ABI) containing the specific primers. The expression levels of all genes were calculated relatively to HPRT or to PPIA housekeeping gene.
# Day 8-erythroblasts = assay: Apoptosis of erythroblasts, Annexin V flow cytometry; format: cell-based, human; details: 48 hour treatment, as low as 0.5 μM
# Procedure: For that purpose, CD34^+ progenitors were cultured in serum-free medium with SCF and EPO for 8 days. […] Day 8-erythroblasts were treated with various doses of SAR405838 or MI-219 for 48 hours. The viable cells were counted by Trypan blue exclusion and the apoptotic cells were quantified by flow cytometry analysis using annexin V/ propidium iodide labeling.
# B. Day 8-erythroblasts were treated with various doses of MI-219 or SAR405838 for 48 hours and counted by trypan blue exclusion. C. Day 8-erythroblasts were treated with various doses of MI-219 or SAR405838 for 48 hours and apoptotic cells were analyzed by flow cytometry using Annexin V assay. The results represent the mean of 3 independent experiments. * represents statistical significance (*P<0.05; **P<0.01; ***P<0.001).
# megakaryoblasts / MKs = assay: Apoptosis of megakaryoblasts/MKs, Annexin V flow cytometry; format: cell-based, human; details: day 6-megakaryoblasts
# Procedure: (§2) We also explored the effects of p53 stabilization at a later stage of megakaryocytic differentiation. […] Day 7-MKs were treated with 5 μM Nutlin 3a for 24 or 48 hours, which led to an increase in p53, p21, BAX, BCL2 and BCL-XL levels, confirming a functional p53 activity (Figure 6A). […] Similar results were found with day 6-megakaryoblasts treated with two doses of SAR405838 for 72 hours (Figure 6D/6E) without any major effect on the percentage of CD41^+ cells (Figure 6F). […] As shown in Figure 6D/6E, at the dose of 0.5 μM the SAR405838 induced a 50% decreased in the number of viable cells while the apoptotic cells reached 50% of the total cells. We checked if the effect of SAR405838 on MKs could be reverted by the addition of high TPO doses. CD34^+ progenitors were cultured in serum-free medium supplemented with SCF and low dose of TPO (1 ng/mL) for 6 days. Day 6-megakaryoblasts were then treated with 1.5 μM of SAR405838 for 48 hours and various doses of TPO.
# (§3) In parallel, the expression of P53, BAK, BCL2L1, NOXA, PUMA, BAX, P21 and P53 were quantified by qRT-PCR related to HPRT. C. […] (n=3). […]
# Apoptosis was measured by Annexin V-FITC detection kit (BD Pharmigen, San Diego, CA) and analyzed by flow cytometry on a LSRII (Becton Dickinson Mountain View, CA).
# [3] = tested on: p53 pathway in megakaryocytes (MKs); assay: p53 pathway proteins and transcripts in MKs (western-blot, qRT-PCR); format: cell-based, human; details: day 11-MKs, 1 μM, 24 hours (legend: 5 μM), compared to 1 μM MI-219 or untreated control
# Procedure: as §2, §3, §1
# Proteins were quantified by Image J software.
# [4] = parameters: method as in PMID 25145672; details: cited from earlier work
# [5] = tested on: p53 in day 8-erythroblasts; assay: p53 expression by western-blot in day 8-erythroblasts; details: Homo sapiens, 192 h, read-out: p53 fold induction (western-blot)
# Procedure: For that purpose, CD34^+ progenitors were cultured in serum-free medium with SCF and EPO for 8 days. SAR405838- or MI-219-treated erythroblasts were analyzed for p53 expression by western-blot. […] Day 8-erythroblasts were treated with various doses of SAR405838 or MI-219 for 48 hours.
# Figure 4 Effect of SAR405838 on erythroid differentiation A. Day 8-erythroblasts treated with MI-219 or SAR405838 were analyzed for p53 expression by western-blot. β-actin was used as loading control.
# Expression levels were performed by western-blot analysis using mouse anti-p53 and anti-β-actin (Sigma-Aldrich), anti-bax (Oncogene), anti-p21 (Beckton Dickenson), anti-Mdm2 (BD Pharmingen), anti-BCL-XL, and rat anti-HSC70 (Stressgen). Proteins were quantified by Image J software.
compound,measurement,setting,value
CC(C)(C)C[C@@H]1N[C@@H](C(=O)N[C@H]2CC[C@H](O)CC2)[C@H](c2cccc(Cl)c2F)[C@]12C(=O)Nc1cc(Cl)ccc12 [SAR405838],IC50,"[1]; 72 h, CD34+ cells treated 3 days, washed, then plated in colony assay, read-out: IC50, reduction of CFU-MK progenitors",~2000 nM
same,IC50,"[1]; CD34+ cells seeded in fibrin clot in the presence of compound, compared to untreated control, read-out: dose inducing a 50% reduction of CFU-MK numbers",500 to 1000 nM
same,"MDM2, PUMA and P21 expression (qRT-PCR related to PPIA)",[2],dose-dependent effect
same,apoptotic cells (annexin V/propidium iodide),Day 8-erythroblasts,increased in a dose-dependent manner
same,"apoptotic cells, of the total cells","megakaryoblasts / MKs; 0.5 μM, 72 hours",50%
same,reversal of compound-mediated MK apoptosis by increasing doses of TPO,"megakaryoblasts / MKs; 1.5 μM for 48 hours, various doses of TPO",unable to revert
same,"P21, BAX, PUMA and BCL2L1 transcripts (qRT-PCR related to HPRT)",[3],significant increase
same,hematopoietic toxicity,[4],reversible thrombocytopenia
same,fold induction at 2 µM,[5],4.8
same,fold induction at 4 µM,[5],4.5
